Several values for one entry are separate records, joined by “and”; a condition that tells them apart may be missing. Equal entries are not always repeated. Where two headings read alike, the source gives them in different places. Values belong to the molecule of their own block, whether it stands above or below them.
What was measured:
[1] = tested on: bPARG Asp738Asn mutant; settings: ref supplemental 2 (Patel et al., 2005); cited from earlier work
[2] = target: bPARG Glu728Asn mutant; settings: cited from earlier work
[3] = target: wild-type bPARG; parameters: method as in PMID 15658938; settings: SPR with immobilized 8-AH-ADP-HPD; cited from earlier work
[4] = tested on: bPARG Glu708Asn mutant; settings: ref supplemental 2 (Patel et al., 2005); cited from earlier work
[5] = tested on: bPARG Glu756Asn mutant; parameters: method as in supplemental 2 (Patel et al., 2005); settings: ref supplemental 2 (Patel et al., 2005); cited from earlier work
[6] = tested on: bPARG Glu757Asn mutant; parameters: method as in supplemental 2 (Patel et al., 2005); settings: ref supplemental 2 (Patel et al., 2005); cited from earlier work
[7] = tested on: bPARG Tyr796Trp mutant; parameters: method as in supplemental 6 (Koh et al., 2003); settings: ref supplemental 6 (Koh et al., 2003); cited from earlier work
[8] = target: T1, hPARG4 (hPARG(448–976)) (Homo sapiens, UniProt Q86W56); experiment: PARG activity HTRF assay (PAR-PARP1 hydrolysis); type: biochemical; settings: 9 µL HTRF
T1 construct: a codon optimized gene encoding human PARG(448–976) was synthesized by GeneArt; 6His (TEV-cleavable) (N, cleaved yes); made in house; host or cells: E. coli BL21 (DE3) GOLD
T1 sequence (Q86W56 448-976): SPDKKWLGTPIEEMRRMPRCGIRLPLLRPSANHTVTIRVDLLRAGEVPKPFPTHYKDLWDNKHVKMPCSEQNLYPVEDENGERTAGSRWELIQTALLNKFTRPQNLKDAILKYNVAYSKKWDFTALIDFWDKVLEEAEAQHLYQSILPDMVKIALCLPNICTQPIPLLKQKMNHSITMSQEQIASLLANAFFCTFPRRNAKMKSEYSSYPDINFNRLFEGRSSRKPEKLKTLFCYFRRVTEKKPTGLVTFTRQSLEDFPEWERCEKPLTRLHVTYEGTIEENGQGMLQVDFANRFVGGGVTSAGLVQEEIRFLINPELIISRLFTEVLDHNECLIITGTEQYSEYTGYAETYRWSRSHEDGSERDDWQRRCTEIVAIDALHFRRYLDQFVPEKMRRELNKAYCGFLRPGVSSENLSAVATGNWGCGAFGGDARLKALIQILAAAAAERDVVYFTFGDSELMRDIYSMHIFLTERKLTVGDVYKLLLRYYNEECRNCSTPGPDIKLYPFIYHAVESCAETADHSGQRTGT
Description: (§1) PARG activity was assessed using an HTRF assay which will be described in detail elsewhere (Bennett et al, manuscript in preparation). […] Following this incubation, biotinylated NAD^+ at a molar ratio to PARylated PARP1 of 0.7∶1 was added and incubation continued for 5 minutes. The reaction was terminated by addition of a PARP1-specific inhibitor to a final concentration of 4.7 µM. The solution was dialysed overnight to remove excess biotinylated NAD^+ and compound, and stored at −80°C. PARG activity was measured in a 384-well format HTRF assay using the biotin-labelled PARylated PARP1 as a substrate. Residual biotinylated PARylated PARP1 was detected by addition of a detection mix containing anti-6His–XL antibody (Cisbio) and streptavidin europium cryptate (Cisbio), and then monitoring the ratio of emission at 665 nm to 612 nm upon excitation at 340 nm.
(§2) Inhibition by ADP-HPD was measured using serial dilutions over the range 100 µM to 100 pM compound from a 1 mM stock in water. Assays contained 30 pM purified recombinant PARG and 9.67 nM PAR-PARP1 in a final volume of 9 µL assay buffer (50 mM MOPS pH 7.4, 0.1 mg/mL BSA, 3 mM EDTA, 0.4 mM EGTA, 1 mM DTT, 0.01% v/v Tween20, 50 mM KCl). […] IC50s were calculated using a time-point of 1.5 hours from the addition of detection reagents. […]

[9] = target: T2, hPARG26 (hPARG(448–976 [K616A, Q617A, K618A, E688A, K689A & K690A])) (Homo sapiens, UniProt Q86W56, E688A/K616A/K618A/K689A/K690A/Q617A); experiment: PARG activity HTRF assay (PAR-PARP1 hydrolysis); type: biochemical; settings: 9 µL HTRF
T2 construct: a codon optimized gene encoding human PARG(448–976 [K616A, Q617A, K618A, E688A, K689A, K690A]); 6His (TEV-cleavable) (N, cleaved yes); made in house; host or cells: E. coli BL21 (DE3) GOLD (shake flasks, as for hPARG4)
T2 sequence (Q86W56 448-976 K616A/Q617A/K618A/E688A/K689A/K690A): as the sequence (Q86W56 448-976) above, with K169A, Q170A, K171A, E241A, K242A, K243A counted along it
Description: as §1, §2

[10] = tested on: bovine PARG (bPARG), recombinant catalytic domain; parameters: method as in PMID 13678410; settings: recombinant catalytic domain of bPARG; read-out: IC50, literature value; cited from earlier work
[11] = tested on: bovine PARG (bPARG), purified full-length protein; parameters: method as in PMID 13678410; settings: read-out: IC50, literature value; cited from earlier work
[12] = target: T1, hPARG4 (hPARG(448–976)); experiment: Isothermal titration calorimetry; type: binding; settings: 25°C
Description: (§3) This was carried out using an iTC200 instrument (Microcal, GE Healthcare, Northampton, MA) at 25°C in the following buffer: 20 mM HEPES pH 7, 150 mM NaCl, 2 mM DTT, 0.02% NaN3. Protein concentrations were typically 30 µM in the cell with ligand concentrations of at least 10 fold this concentration in the syringe. Typical injection protocols of 19×2 µL injections, spaced at 2 or 3 minute intervals were used. Curves were fitted by non-linear regression analysis using a one-site binding model provided by MicroCal Origin software (version 7).

[13] = target: T3, hPARG (full-length) (Homo sapiens, UniProt Q86W56); experiment: Isothermal titration calorimetry; type: binding; settings: 25°C
T3 construct: direct expression of hPARG(1–976) with a C-terminal hexahistidine tag; made in house; host or cells: E. coli BL21 (DE3) GOLD
T3 sequence (Q86W56 whole entry): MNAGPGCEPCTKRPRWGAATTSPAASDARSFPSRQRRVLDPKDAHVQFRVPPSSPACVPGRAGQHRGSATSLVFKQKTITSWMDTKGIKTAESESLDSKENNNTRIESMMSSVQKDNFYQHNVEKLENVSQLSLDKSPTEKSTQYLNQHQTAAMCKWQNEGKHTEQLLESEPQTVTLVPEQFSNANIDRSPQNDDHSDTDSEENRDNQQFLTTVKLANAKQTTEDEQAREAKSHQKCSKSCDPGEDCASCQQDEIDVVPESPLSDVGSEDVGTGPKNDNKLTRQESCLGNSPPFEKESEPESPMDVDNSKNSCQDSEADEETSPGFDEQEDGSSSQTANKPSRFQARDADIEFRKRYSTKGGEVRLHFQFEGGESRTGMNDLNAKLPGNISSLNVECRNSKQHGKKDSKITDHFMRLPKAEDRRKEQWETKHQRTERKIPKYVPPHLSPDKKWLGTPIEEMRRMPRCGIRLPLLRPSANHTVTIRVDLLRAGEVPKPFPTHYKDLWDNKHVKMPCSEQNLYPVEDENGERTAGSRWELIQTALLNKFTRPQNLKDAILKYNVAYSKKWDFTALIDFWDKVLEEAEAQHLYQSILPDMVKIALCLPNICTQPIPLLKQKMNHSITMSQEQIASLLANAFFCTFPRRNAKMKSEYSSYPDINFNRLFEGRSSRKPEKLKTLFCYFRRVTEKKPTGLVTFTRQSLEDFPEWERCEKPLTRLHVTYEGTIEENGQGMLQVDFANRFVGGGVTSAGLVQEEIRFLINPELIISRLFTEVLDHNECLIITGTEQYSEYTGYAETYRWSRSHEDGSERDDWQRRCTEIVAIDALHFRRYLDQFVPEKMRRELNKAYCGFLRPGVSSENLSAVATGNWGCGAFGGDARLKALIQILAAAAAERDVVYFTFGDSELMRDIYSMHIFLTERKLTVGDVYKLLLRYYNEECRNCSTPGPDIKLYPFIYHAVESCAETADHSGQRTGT
Description: as §3

[14] = target: T4, hPARG (full-length recombinant hPARG(1–976)-6His) (Homo sapiens, UniProt Q86W56); experiment: PARG activity HTRF assay (PAR-PARP1 hydrolysis); type: biochemical; settings: hPARG
T4 construct: direct expression of hPARG(1–976) with a C-terminal hexahistidine tag; made in house; host or cells: E. coli BL21 (DE3) GOLD
T4 sequence (Q86W56 whole entry): as above
Description: as §1
Inhibition by ADP-HPD was measured using serial dilutions over the range 100 µM to 100 pM compound from a 1 mM stock in water. Assays contained 30 pM purified recombinant PARG and 9.67 nM PAR-PARP1 in a final volume of 9 µL assay buffer (50 mM MOPS pH 7.4, 0.1 mg/mL BSA, 3 mM EDTA, 0.4 mM EGTA, 1 mM DTT, 0.01% v/v Tween20, 50 mM KCl). Reactions were allowed to proceed for 8 minutes prior to the addition of 3 µL detection reagents (50 mM MOPS pH 7.4, 0.1 mg/mL BSA, 0.1 M Potassium Fluoride, 14 nM anti-6HIS-XL antibody, 0.75 nM Streptavidin Europium Cryptate). IC50s were calculated using a time-point of 1.5 hours from the addition of detection reagents.
Here, 17.5 nL of ADP-HPD ([…]) or OA-ADP-HPD (21.43 mM in DMSO) were dispensed by an ECHO555 (Labcyte Inc.) into Greiner white 1536-well plates over the specified range: ADP-HPD (100 µM to 100 pM) and OA-ADP-HPD (500 µM to 30 nM).
ADP-HPD and OA-ADP-HPD inhibition data were visualised in Prism (GraphPad), and IC50s derived from a non-linear regression analysis of the values from three separate experiments (run in triplicate) fit to a sigmoidal dose-response curve.

[15] = target: T1, hPARG4 (hPARG(448–976)); experiment: SPR binding to immobilised PARG, steady state fits; settings: 25°C, steady state fit
Description: (§4) Biosensor (SPR) analyses were conducted using a BIAcore 3000 or BIAcore S51 instrument. Research grade CM5 chips and coupling reagents (N-ethyl-N′-dimethylaminopropylcarbodiimide, EDC; N-hydroxysuccinimide, NHS; and 1 M ethanolamine HCl, pH 8.5) were purchased from BIAcore (GE Healthcare, Northampton, MA).
(§5) A CM5 chip was docked into the instrument, primed 5 times with filtered and degassed running buffer containing 50 mM HEPES pH 7, followed by preconditioning at 100 µL/min using two consecutive aliquots of 50 µL each of 10 mM HCl, 50 mM NaOH, 0.1% (w/v) SDS, 0.085% (v/v) H3PO4. PARG surfaces were prepared by standard amine coupling via exposed amines on PARG. Immobilisations were conducted at 25°C in 50 mM HEPES at a flow rate of 5 µL/min. Flow cells were activated for 7 min by injecting a 35 µL mixture of 50 mM NHS: 200 mM EDC. Subsequently, 35 µL of 100 µg/mL PARG was injected for 7 min, followed by a 35 µL injection of ethanolamine. Typical immobilisation levels ranged from 3000 to 5000 resonance units (RU). Nonderivatised flow cells served as reference surfaces.
(§6) Studies of PARG inhibitor binding were conducted at 25°C. […] To calculate affinities, SPR equilibrium binding data, consisting of Req values from 8–10 point concentration series, were analyzed by fitting a simple 1∶1 binding model to yield Rmax and Kd values using non-linear regression analysis in Grafit 6 (Erithacus Software).

[16] = target: T3, hPARG (full-length); experiment: SPR binding to immobilised PARG, steady state fits; settings: 25°C, steady state fit
Description: as §4, §5, §6

[17] = target: bPARG; parameters: method as in PMID 7830282; settings: read-out: KD, literature values for bPARG; cited from earlier work

Molecule: 8-aminohexylaminoADP-HPD [8-AH-ADP-HPD]
- decrease in affinity versus wild-type [1]: No detectable activity; 1.4-fold decrease in affinity for 8-AH-ADP-HPD
- Kd ([2]; bPARG Glu728Asn (E727N in hPARG), SPR with immobilized 8-AH-ADP-HPD): 3.2 nM
- increase in affinity versus wild-type ([2]; bPARG Glu728Asn, ref supplemental 2 (Patel et al., 2005)): 18% wild-type specific activity; 2.5-fold increase in affinity for 8-AH-ADP-HPD
- Kd [3]: 8.2 nM
- increase in affinity versus wild-type [4]: No effect on catalytic activity; 2.5-fold increase in affinity for 8-AH-ADP-HPD
- increase in affinity versus wild-type [5]: No detectable activity; 8-fold increase in 8-AH-ADP-HPD affinity
- effect of mutation on affinity [6]: No detectable activity; no effect on 8-AH-ADP-HPD affinity
- effect of mutation on binding [7]: Limited effect on catalytic activity and 8-AH-ADP-HPD binding

- IC50 [8]: 970 ± 240 nM
- IC50 [9]: 1100 ± 220 nM
- Kd ([12]; read-out: KD (ITC)): 132 ± 14 nM
- ΔG ([12]; ITC): -9.42 ± 0.072 kcal/mol
- ΔH ([12]; ITC): -13.4 ± 0.096 kcal/mol
- ΔS ([12]; ITC): −56.1±0.5 J/mol/K
- Kd ([13]; values heavily influenced by base-line noise (Figure S2), read-out: KD (ITC)): 416 ± 89.9 nM
- ΔG ([13]; ITC): -8.7 ± 0.12 kcal/mol
- ΔH ([13]; ITC): -7.36 ± 0.0096 kcal/mol
- ΔS ([13]; ITC): +18.8±1.7 J/mol/K
- IC50 ([14]; 384-well HTRF, 9 µL, 30 pM PARG, 9.67 nM PAR-PARP1, 8 min reaction, read-out: IC50): 3000 nM and 3100 nM
- IC50 ([14]; conditions of the High Throughput Screening campaign, read-out: IC50 under HTS campaign conditions): ~600 nM
- Kd [15]: 64.3 ± 2.6 nM
- Kd [16]: 44.8 ± 2.9 nM
Molecule: Nc1ncnc2c1ncn2C1OC(COP(=O)(O)OP(=O)(O)OCC2NCC(O)C2O)C(O)C1O (stereo not shown) [ADP-HPD, adenosine 5′-diphosphate (hydroxymethyl)pyrrolidinediol]
- IC50 [10]: 1000 to 1400 nM
- IC50 [11]: 330 nM
- Kd [17]: 50 to 80 nM
